Experimental data taken from patent publication US20030055065A1, “Tricyclic amide and urea compounds useful for inhibition of G-protein function and for treatment of proliferative diseases” (priority 1993, published 2003).
pIC50: −log10 of the molar value. Several values for one entry are separate records, joined by “and”; a condition that tells them apart may be missing. Equal values may be shown once. Read-outs that look alike come from different tables or passages of the source.

Key:
[1] = target: T1, farnesyl protein transferase (FPT), partially purified from rat brain (Rattus norvegicus, UniProt Q02293+Q04631); experiment: Inhibition of farnesyl protein transferase (transfer of [3H]farnesyl to Ras-CVLS); assay type: biochemical
T1 construct: were partially purified from rat brain by ammonium sulfate fractionation followed by Q-Sepharose
In short: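 Transfer of [3H]farnesyl onto E. coli-expressed, His6-tagged Ras-CVLS was measured after 30 min at room temperature. Radiolabelled Ras was TCA-precipitated on ice and filter-harvested, and inhibition was expressed as percent of DMSO control.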

[2] = target: T2, geranylgeranyl protein transferase (GGPT) I (Rattus norvegicus, UniProt P53610+Q04631); experiment: Inhibition of geranylgeranyl protein transferase I (Ras-CVLL as acceptor); assay type: biochemical; details: enzyme inhibition
T2 construct: were partially purified from rat brain by ammonium sulfate fractionation followed by Q-Sepharose
In short: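 Rat brain GGPT I, partially purified by ammonium sulfate fractionation and anion exchange, was assayed with [3H]geranylgeranyl pyrophosphate as isoprenoid donor. The acceptor was E. coli-expressed His6-tagged val12-Ha-Ras ending in CVLL. The protocol otherwise matched the farnesyl protein transferase assay.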

[3] = test system: Ras-CVLS processing in COS monkey kidney cells; experiment: COS cell assay: Ras-CVLS processing (Western blot); assay type: cell-based; details: COS cells, read-out: Inhibition of Ras Processing IC50
In short: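 COS cells electroporated with Ras-CVLS (farnesyl transferase substrate) cDNA, with drug-containing fresh medium added at 24 h and cells examined at 48 h. TCA-precipitated cellular protein was resolved by SDS gel and immunoblotted with anti-p21 Ras monoclonal and HRP anti-rat IgG to monitor Ras processing.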

[4] = test system: Normal human HEPM fibroblasts; experiment: Cell Mat Assay: density of mat cells (mIC50); assay type: cell-based
In short: (§1)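 Serial compound dilutions added 24 h after planting T24-BAG4 cells onto a mat of normal cells, then 14 d colony growth; monolayers glutaraldehyde-fixed and tumor cells X-Gal stained. tIC50 and mIC50 from microscope counts of colonies, cells per colony and mat cell density.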

[5] = test system: SW620 (human colon adenocarcinoma [lymph node metastasis]); experiment: In vivo anti-tumor study, SW620; design: species or system athymic nu/nu female mice; details: SW620 tumor, 100 MPK, po, 10/wk, x4; for inhibition in vivo at 100 mg/kg: Mus musculus, SW-620, po
Experimental: In vivo Anti-tumor Studies
Tumor bearing animals are selected and randomized when the tumors are established. […] The percent inhibition of tumor growth relative to vehicle controls are determined by tumor measurements.

[6] = test system: T24-BAG4 human bladder carcinoma cells expressing an activated H-ras gene; experiment: Cell Mat Assay: tumor cell colony inhibition (tIC50); assay type: cell-based; details: inhibition of tumor cell growth
In short: as §1

[7] = Ras-CVLS farnesylation, partially purified rat brain FPT, read-out: FPT IC50
[8] = enzyme inhibition, read-out: FPT IC50

T1 sequence (Q02293 whole entry, one chain of several): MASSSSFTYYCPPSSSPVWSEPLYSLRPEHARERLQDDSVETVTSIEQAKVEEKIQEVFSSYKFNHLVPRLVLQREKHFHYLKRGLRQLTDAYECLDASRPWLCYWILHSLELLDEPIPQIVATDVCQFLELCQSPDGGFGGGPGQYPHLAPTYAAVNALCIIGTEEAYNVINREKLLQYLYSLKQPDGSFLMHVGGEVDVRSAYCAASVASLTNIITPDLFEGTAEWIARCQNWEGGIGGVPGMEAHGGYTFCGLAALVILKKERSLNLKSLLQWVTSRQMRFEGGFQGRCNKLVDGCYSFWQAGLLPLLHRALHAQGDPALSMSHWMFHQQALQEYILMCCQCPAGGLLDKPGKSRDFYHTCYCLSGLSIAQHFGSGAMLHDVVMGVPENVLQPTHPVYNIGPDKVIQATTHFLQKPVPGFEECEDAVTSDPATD
T2 sequence (P53610 whole entry, one chain of several): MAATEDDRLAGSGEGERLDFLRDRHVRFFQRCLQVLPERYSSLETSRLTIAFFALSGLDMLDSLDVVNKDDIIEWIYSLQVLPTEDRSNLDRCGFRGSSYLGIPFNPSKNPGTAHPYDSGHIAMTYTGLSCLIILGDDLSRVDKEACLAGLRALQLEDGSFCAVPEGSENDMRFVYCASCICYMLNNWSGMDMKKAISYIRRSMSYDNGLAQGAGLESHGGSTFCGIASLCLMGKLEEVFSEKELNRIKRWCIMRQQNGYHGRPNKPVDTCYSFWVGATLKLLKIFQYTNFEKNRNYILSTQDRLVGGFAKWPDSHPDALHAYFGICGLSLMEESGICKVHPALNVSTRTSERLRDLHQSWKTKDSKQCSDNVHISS

| SMILES | pIC50 [1, 7] | melting point | pIC50 ([6]; Homo sapiens) | pIC50 ([3]; Primates, COS) | pIC50 ([4]; Homo sapiens, Fibroblast) | other results |
| --- | --- | --- | --- | --- | --- | --- |
| O=C(Nc1ccccn1)N1CCN(C2c3ccc(Cl)cc3CCc3cccnc32)CC1 (stereo not drawn) [187 (6.8)] | 6.02 |  |  |  |  | pIC50 [2]: < 4.34; pIC50 [3]: 5.89; pIC50 [4]: < 4.30 and 4.30; Average % Tumor Inhibition ([5]; listed as Ex. 187 (6.8), 100 mg/kg): 11% and 21% |
| CN1C(=O)CC[C@H](C(=O)N2CCC(=C3c4ccc(Cl)cc4CCc4cccnc43)CC2)[C@H]1c1ccc(F)cc1 [Example 4] | 6.00 and 6.10 |  |  |  |  | inhibition in vivo at 100 mg/kg [5]: 2% |
| O=C1CCC(C(=O)N2CCC(=C3c4ccc(Cl)cc4CCc4cccnc43)CC2)CC1 [Example 5] | 5.77 | 200 °C |  | 5.04 | < 4.30 | pIC50 [1, 8]: 5.77; pIC50 [2]: < 4.34; pIC50 [3]: < 4.92; pIC50 [4]: 4.00 |
| O=C(C(c1ccccc1)c1ccccc1)N1CCC(=C2c3ccc(Cl)cc3CCc3cccnc32)CC1 [Example 42] | 6.22 | 114.2 to 115.8 °C | 4.30 | 5.24 | < 4.30 |  |
| CC(=O)N1CCC(C(=O)N2CCN(C3c4ccc(Cl)cc4CCc4cccnc43)CC2)CC1 (stereo not drawn) [Example 192] | 5.91 |  | 4.60 | 5.31 | < 4.30 | pIC50 [2]: < 4.37; pIC50 ([6]; listed as 192 (5.65)): 4.43; inhibition in vivo at 100 mg/kg [5]: 29% |
| O=C(Cc1ccc[n+]([O-])c1)N1CCC(=C2c3ccc(Cl)cc3CCc3ccc[n+]([O-])c32)CC1 [Example 231] |  | 105 to 107 °C |  |  |  | inhibition at 12 µM ([1]; at 12 μM): 44% |
| O=C(Cc1cccnc1)N1CCC(C2c3ccc(Cl)cc3CCc3ccc[n+]([O-])c32)CC1 (stereo not drawn) [Example 235] | 5.45 | 61.8 to 62.3 °C | 4.90 | 5.04 | < 4.30 |  |
| O=C(Cc1ccncc1)N1CCC(C2c3ccc(Cl)cc3CCc3ccc[n+]([O-])c32)CC1 (stereo not drawn) [Example 236] | 5.83 | 116.7 to 117.6 °C | 5.40 | 5.46 | < 4.30 | pIC50 [2]: < 4.35 |
| O=C(Cc1cc[n+]([O-])cc1)N1CCC(C2c3ccc(Cl)cc3CCc3ccc[n+]([O-])c32)CC1 (stereo not drawn) [Example 238] |  | 85 to 85.6 °C | < 4.30 |  | < 4.30 | inhibition at 4 µM ([1]; at 4 μM): 26% |
| O=C(Cc1ccncc1)N1CCC(=C2c3ccc(Cl)cc3CCc3c(On4nnc5ccccc54)ccnc32)CC1 [Example 249] | 6.19 | 98.6 to 101.6 °C |  |  |  |  |
| O=C(Cc1cccnc1)N1CCC(=C2c3ccc(Cl)cc3CCc3c(On4nnc5ccccc54)ccnc32)CC1 [Example 251] | 6.12 | 120 to 122 °C |  | 5.09 |  |  |
| CC(C)(C)OC(=O)NCCSc1ccnc2c1CCc1cc(Cl)ccc1C2=C1CCN(C(=O)Cc2cccnc2)CC1 [Example 260] | 5.00 | 59.8 to 63.5 °C |  |  |  |  |
| CCc1cc2c(cc1Cl)C=Cc1cccnc1C2C1CCN(C(=O)Cc2cccnc2)CC1 (stereo not drawn) [Example 270] | 5.55 | 67.2 to 69.8 °C |  |  |  |  |
| CN1CCC(CC(=O)N2CCC(=C3c4ccc(Cl)cc4CCc4c3ncc(Br)c4Cl)CC2)CC1 [Example 413] |  | 105 °C (dec.) | < 5.20 | 5.82 | 5.00 | pIC50 [1, 8]: 6.99; pIC50 [2]: < 4.46 |
| O=C(Nc1ccccc1)N1CCC(=C2c3ccc(Cl)cc3CCc3c2ncc(Br)c3Cl)CC1 [Example 414] |  | 125.6 °C (dec.) |  |  |  | pIC50 [1, 8]: 6.05 |
| O=C(Cc1ccncc1)N1CCC(=C2c3ccc(Cl)cc3CCc3cc(Br)c(O)nc32)CC1 [Example 415] |  | 150 °C (dec.) |  |  |  | pIC50 [1, 8]: < 5.42 |
| Cn1cc(Br)c(=O)c2c1C(=C1CCN(C(=O)Cc3ccncc3)CC1)c1ccc(Cl)cc1CC2 [Example 416] | 5.43 | 142 °C (dec.) |  |  |  |  |
| O=C(Nc1ccncc1)N1CCC(=C2c3ccc(Cl)cc3CCc3cc(Cl)ccc32)CC1 [Example 423] |  | 206.4 to 207 °C |  |  |  | FPT inhibition at the concentration in parentheses ([1]; (4.3) μM): 35 (4.3); pIC50 [1, 8]: < 5.37 |
| O=C(NCc1ccccc1)c1ccc2c(c1)CCc1cccnc1C2=C1CCN(C(=O)Cc2ccncc2)CC1 [Example 436] | 4.77 | 118 to 120 °C |  |  |  |  |
| O=C(Nc1ccc2c(c1)CCc1cccnc1C2=C1CCN(C(=O)Cc2ccncc2)CC1)OCc1ccccc1 [Example 437] |  | 132.8 to 133.7 °C |  |  |  | FPT inhibition at the concentration in parentheses ([1]; (11) μM): 36 (11) |

Now from value to compound, other results behind:

| pIC50 [1, 7] | melting point | pIC50 ([6]; Homo sapiens) | SMILES | pIC50 ([3]; Primates, COS) | pIC50 ([4]; Homo sapiens, Fibroblast) | other results |
| --- | --- | --- | --- | --- | --- | --- |
| 5.70 | 122 to 125 °C | 4.90 | O=C(Cc1ccccn1)N1CCC(=C2c3ccc(Cl)cc3CCc3cccnc32)CC1 [Example 6] | 5.00 | 4.30 |  |
| 6.22 | 93.3 to 94.6 °C | 4.60 | O=C(Cc1ccc(Br)cc1)N1CCC(=C2c3ccc(Cl)cc3CCc3cccnc32)CC1 [Example 43] | 5.01 | 4.30 |  |
| 6.10 | 112 to 114.6 °C | 4.60 | O=C(Cc1ccccc1)N1CCC(=C2c3ccc(Cl)cc3CCc3cccnc32)CC1 [Example 44] | 4.94 | 4.60 |  |
| 5.89 | 82.7 to 83.8 °C | 4.90 | CCC(C(=O)N1CCC(=C2c3ccc(Cl)cc3CCc3cccnc32)CC1)c1ccccc1 (stereo not drawn) [Example 48] | 4.97 | 4.60 |  |
| 5.60 | 282 to 285 °C |  | O=C(Cc1ccccc1[N+](=O)[O-])C(=O)N1CCC(=C2c3ccc(Cl)cc3CCc3cccnc32)CC1 [Example 220] |  |  |  |
| 6.80 | 92 to 93 °C |  | O=C(Cc1cccnc1)N1CCC(=C2c3ccc(Cl)cc3CCc3cc(Br)cnc32)CC1 [Example 247] | < 5.41 | < 4.30 | pIC50 [2]: < 4.40; pIC50 ([3]; listed as 247 (5.122)): 5.46 |
| 6.02 | 59.8 to 63.5 °C | 4.74 | O=C(Cc1cccnc1)N1CCC(=C2c3ccc(Cl)cc3CCc3c(Cl)ccnc32)CC1 [Example 250] | 5.07 | < 4.30 |  |
| 6.24 | 111.3 to 112.2 °C |  | O=C(Cc1ccncc1)N1CCC(=C2c3ccc(Cl)cc3CCc3cc([N+](=O)[O-])cnc32)CC1 [Example 358] |  |  |  |
|  | 133.2 to 133.4 °C | 4.74 | Nc1cnc2c(c1)CCc1cc(Cl)ccc1C2=C1CCN(C(=O)Cc2ccncc2)CC1 [Example 402] | < 5.00 | < 4.60 | pIC50 ([1]; FPT IC50, enzyme inhibition): 6.00 |
|  | 238 to 240 °C |  | O=C(O)c1ccc2c(c1)CCc1cccnc1C2=C1CCN(C(=O)Cc2ccncc2)CC1 [Example 435] |  |  | pIC50 [1, 8]: 5.15 |
